Reference: patent US20200030355A1, “COMBINATION THERAPY FOR TREATING CANCER” (Epizyme, Inc., priority 2014, published 2020)

How the values were obtained:
MOLM-13 (MLL-AF9) = assay: Compound A2 7-day pre-treatment, then Compound A2 and Compound 1 for 3 days, CellTiter-Glo (Example 9); assay type: cell-based, human; settings: Compound A2 7 days, then both for 3 days, n=2
Protocol: (§1) At the endpoint, cell viability was measured via ATP content using CellTiter-Glo®.

SKM-1 (non-MLL-r) = assay: as above; assay type: cell-based, human; settings: Compound A2 7 days, then both for 3 days, n=2
Protocol: as §1

258 kinases = assay: Kinase selectivity analysis; assay type: biochemical; settings: analysis of 258 kinases
Protocol: (§2) Compound 1 is a potent inhibitor of the kinase activities of ERK1 and ERK2. In some embodiments, Compound 1 inhibits one or both of ERK1 and ERK2 with an IC50 of about 10 to about 20 nM.

[1] = system: BRAF-mutant cancer cell lines; assay: Cancer cell panel screening, anti-proliferative activity; assay type: cell-based; settings: 25 of 27 BRAF-mutant cancer cell lines tested
Description: (§3) Bioinformatic analyses indicate that tumors with activating mutations of BRAF are particularly sensitive to Compound 1. […] In the same cancer cell panel screening, 28 of 37 (76%) KRAS-mutant cancer cell lines were sensitive to Compound 1. […] This is of particular importance as resistance to BRAF inhibition has been commonly observed in human patients. […] Without wishing to being bound by any particular theory, it is believed that inhibitors of one or both of ERK1 and ERK2, or a mutant thereof, such as Compound 1, or pharmaceutically acceptable salts thereof, provide effective salvage therapy.

[2] = system: KRAS-mutant cancer cell lines; assay: as above; assay type: cell-based; settings: 28 of 37 KRAS-mutant cancer cell lines
Description: as §3

ERK1 = ERK1 (Homo sapiens, UniProt P27361); assay: ERK kinase activity inhibition; assay type: biochemical
Sequence of ERK1 (P27361 whole entry): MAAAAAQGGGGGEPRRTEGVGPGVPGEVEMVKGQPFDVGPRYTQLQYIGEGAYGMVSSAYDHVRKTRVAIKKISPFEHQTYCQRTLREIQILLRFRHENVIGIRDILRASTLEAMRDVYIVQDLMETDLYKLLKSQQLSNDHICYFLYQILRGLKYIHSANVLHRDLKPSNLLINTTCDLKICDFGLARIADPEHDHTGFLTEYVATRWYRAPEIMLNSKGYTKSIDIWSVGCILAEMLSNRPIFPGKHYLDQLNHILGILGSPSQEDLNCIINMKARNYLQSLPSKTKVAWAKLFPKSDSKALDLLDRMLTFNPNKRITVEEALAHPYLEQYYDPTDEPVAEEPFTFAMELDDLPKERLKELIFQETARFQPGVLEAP
Protocol: as §2
(§4) The activity of Compound 1, and pharmaceutically acceptable salts thereof, as an inhibitor of one or both of an ERK1 and ERK2 kinase, or a mutant thereof, may be assayed in vitro, in vivo or in a cell line. In vitro assays include assays that determine inhibition of downstream phosphorylation, changes in gene expression, subsequent functional markers and consequences, and/or kinase activity of one or both of activated ERK1 and ERK2 kinase, or a mutant thereof. Alternate in vitro assays quantitate the ability of the test compound to bind to one or both of ERK1 and ERK2. Test compound binding may be measured by radiolabeling the test compound prior to binding, isolating one or both of the compound/ERK1 complex and the compound/ERK2 complex, and determining the amount of radiolabel bound. Alternatively, test compound binding may be determined by running a competition experiment where test compounds are incubated with one or both of ERK1 and ERK2 kinase bound to known radioligands. […]

ERK2 = ERK2 (Homo sapiens, UniProt P28482); assay: ERK kinase activity inhibition; assay type: biochemical
Sequence of ERK2 (P28482 whole entry): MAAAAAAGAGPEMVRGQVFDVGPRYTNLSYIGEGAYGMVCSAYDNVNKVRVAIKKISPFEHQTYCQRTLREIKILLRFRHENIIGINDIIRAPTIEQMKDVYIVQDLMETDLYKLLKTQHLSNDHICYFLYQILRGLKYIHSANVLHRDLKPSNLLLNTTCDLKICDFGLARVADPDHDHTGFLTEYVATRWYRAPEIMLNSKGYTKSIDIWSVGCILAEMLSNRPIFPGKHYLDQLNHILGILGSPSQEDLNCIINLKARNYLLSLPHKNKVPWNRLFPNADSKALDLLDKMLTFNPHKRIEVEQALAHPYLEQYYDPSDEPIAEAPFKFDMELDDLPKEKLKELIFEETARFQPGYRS
Protocol: as §2, §4

[3] = system: A375 melanoma cells that have acquired in vitro resistance to BRAF and MEK inhibition; assay: Inhibitory activity against resistant melanoma cells; assay type: cell-based
Description: as §3

Kinase selectivity profile (258 kinases): good overall kinase selectivity profile
Cell lines sensitive to Compound 1 inhibition (GI50 <1 μM) [1]: 93%
IC50 (ERK1): 10 to 20 nM
IC50 (ERK2): 10 to 20 nM
SMILES: C=CC(=O)Nc1cc(C)ccc1Nc1nc(Nc2cc(OC)ncc2C)ncc1C(F)(F)F [Compound 1, N-(2-((2-((2-methoxy-5-methylpyridin-4-yl)amino)-5-(trifluoromethyl)pyrimidin-4-yl)amino)-5-methylphenyl)acrylamide]
Combination (Compound A2 and Compound 1) (MOLM-13 (MLL-AF9)): Synergy
Combination (Compound A2 and Compound 1) (SKM-1 (non-MLL-r)): No benefit
Cell lines sensitive to Compound 1 [2]: 76%
Activity against resistant A375 melanoma cells [3]: inhibitory activity
